Laboratory results published in patent US10053468B2, “Heterocyclic compound” (TAKEDA PHARMACEUTICAL COMPANY LIMITED, priority 2013, dated 2018).
Where two headings read alike, the source gives them in different places.

How the values were obtained:
RORγt [1] = molecular target: T1, RORγt (Homo sapiens, UniProt P51449); test: RORγt binding test using fluorescent-labeled cholesterol (TR-FRET); conditions: read-out: Binding inhibitory rate of fluorescent-labeled cholesterol to RORγt at test compound 1 μM (%)
T1 sequence (P51449 1-497 isoform P51449-2): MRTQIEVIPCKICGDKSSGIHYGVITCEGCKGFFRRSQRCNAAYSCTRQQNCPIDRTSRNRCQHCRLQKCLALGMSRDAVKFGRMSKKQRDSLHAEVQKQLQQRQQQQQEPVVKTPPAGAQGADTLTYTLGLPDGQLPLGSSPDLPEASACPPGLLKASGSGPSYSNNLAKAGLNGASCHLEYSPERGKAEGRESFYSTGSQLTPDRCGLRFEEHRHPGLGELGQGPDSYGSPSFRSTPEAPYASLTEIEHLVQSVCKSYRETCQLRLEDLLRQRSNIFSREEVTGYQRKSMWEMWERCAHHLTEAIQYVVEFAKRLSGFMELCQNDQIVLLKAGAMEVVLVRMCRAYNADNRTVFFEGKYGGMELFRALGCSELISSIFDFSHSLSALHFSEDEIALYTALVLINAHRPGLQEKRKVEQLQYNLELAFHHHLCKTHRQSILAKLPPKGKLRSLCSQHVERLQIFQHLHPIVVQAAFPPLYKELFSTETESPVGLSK
In short: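 TR-FRET displacement with His-tagged RORγt, BODIPY-cholesterol and Tb-anti-His antibody in Tris-HCl pH 7.5, 100 mM NaCl, 1 mM DTT, 0.1% BSA. Compound, RORγt and labelled cholesterol were incubated 20 min at RT, then antibody was added for another 20 min.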

RORγt [2] = molecular target: T1, RORγt; test: RORγt binding test using fluorescent-labeled synthetic ligand (TR-FRET); conditions: read-out: Binding inhibitory rate of fluorescent-labeled synthetic ligand to RORγt at test compound 1 μM (%)
Description: RORγt Binding Test Using Fluorescent-labeled Synthetic Ligand
The binding activity of the test compound to RORγt was measured by a time resolved fluorescence resonance energy transfer method (TR-FRET) utilizing histidine-tagged RORγt, fluorescent-labeled synthetic ligand, and terbium-labeled anti-histidine tag antibody (Invitrogen). First, a test compound diluted with an assay buffer (20 mM Tris-HCl (pH 7.5), 100 mM NaCl, 1 mM DTT, 0.1% BSA) was added to a 384 well plate by 3 μL. Then, RORγt diluted with an assay buffer to 240 nM was added by 3 μL, after which fluorescent-labeled synthetic ligand diluted with the assay buffer to 12 μM was added by 3 μL, and the mixture was stood at room temperature for 20 min. Thereafter, a terbium-labeled anti-histidine tag antibody diluted with the assay buffer to 8 nM was added by 3 μL. The mixture was stood at room temperature for 20 min, and fluorescence intensity (excitation wavelength 320 nm, fluorescence wavelength 520 nm, delay time 100 microseconds) was measured by Envision (PerkinElmer).

RORγt [3] = molecular target: T1, RORγt; test: Cofactor recruitment test (Alpha Screen, biotinylated SRC-1 peptide); format: biochemical; conditions: read-out: Signal value inhibitory rate at test compound 1 μM (%)
Description: Cofactor Recruitment Test
Cofactor recruitment test was performed by Alpha Screen (Histidine Detection Kit, PerkinElmer) method. First, a test compound was diluted with an assay buffer (50 mM Tris-HCl (pH 7.5), 50 mM KCl, 1 mM DTT, 0.1% BSA) and added to a 384 well plate by 5 μL. […] The mixture was stood in a dark place for 1 hr, and the signal value was measured by Envision (PerkinElmer).

RORγt [4] = molecular target: T1, RORγt; test: Jurkat reporter test (human IL-17 ROR response element luciferase, RORγt vector); format: cell-based; conditions: read-out: Luminescence level inhibitory rate at test compound 3 μM (%)
In short: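 Jurkat cells were electroporated (1350 V, 10 ms, 3 pulses) with reporter constructs, then cultured overnight with compound in RPMI containing 10% lipid-reduced FCS, 10 mM HEPES pH 7.5 and 5 μM lovastatin. Luciferase was quantified by Bright-Glo luminescence after 10 min at room temperature.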

[5] = test compound 3 μM, Jurkat cells

| Compound | inhibition at 1 µM (RORγt [1]) | inhibition at 1 µM (RORγt [2]) | inhibition at 1 µM (RORγt [3]) | inhibition at 3 µM (RORγt [4]; [5]) | inhibition at 3 µM (RORγt [4]; Jurkat) |
| --- | --- | --- | --- | --- | --- |
| COCc1ccc2c(c1)CCN(C(=O)Cc1cc(O)no1)[C@H]2C(=O)Nc1ccc(C(C)(C)C)c(F)c1 [Example 132, (1R)-N-(4-tert-butyl-3-fluorophenyl)-2-((3-hydroxy-1,2-oxazol-5-yl)acetyl)-6-(methoxymethyl)-1,2,3,4-tetrahydroisoquinoline-1-carboxamide] | 100% | 102% | 98% | 104% |  |
| COc1ccc2c(c1)OCCN(C(=O)Cc1cc(O)no1)[C@H]2C(=O)Nc1cc(F)c([Si](C)(C)C)c(F)c1 [Example 56, (5R)-N-(3,5-difluoro-4-(trimethylsilyl)phenyl)-4-((3-hydroxy-1,2-oxazol-5-yl)acetyl)-8-methoxy-2,3,4,5-tetrahydro-1,4-benzoxazepine-5-carboxamide] | 101% | 102% | 61.3% |  | 99.9% |
| CC[Si](C)(C)c1c(F)cc(NC(=O)[C@H]2c3ccc(OC)nc3CCN2C(=O)c2cc(O)no2)cc1F [Example 111, (5R)-N-(4-(ethyl (dimethyl)silyl)-3,5-difluorophenyl)-6-((3-hydroxy-1,2-oxazol-5-yl)carbonyl)-2-methoxy-5,6,7,8-tetrahydro-1,6-naphthyridine-5-carboxamide] | 103% | 101% | 99% |  | 103% |
| C[Si](C)(C)c1c(F)cc(NC(=O)[C@H]2c3ccc4c(c3CCN2C(=O)CCCC(=O)O)OCO4)cc1F [Example 254, 5-((6R)-6-((3,5-difluoro-4-(trimethylsilyl)phenyl)carbamoyl)-8,9-dihydro[1,3]dioxolo[4,5-f]isoquinolin-7(6H)-yl)-5-oxopentanoic acid] |  | 102% | 101% |  | 102% |
| C[Si](C)(C)c1c(F)cc(NC(=O)[C@H]2c3ccc(OC(F)F)cc3CCN2C(=O)CCC(=O)O)cc1F [Example 195, 4-((1R)-6-(difluoromethoxy)-1-((3,5-difluoro-4-(trimethylsilyl)phenyl)carbamoyl)-3,4-dihydroisoquinolin-2 (1H)-yl)-4-oxobutanoic acid] |  | 101% | 89% |  | 101% |
| CCOc1ccc2c(c1)CCN(C(=O)CC(C)(O)CC(=O)O)[C@H]2C(=O)Nc1cc(F)c([Si](C)(C)C)c(F)c1 (stereo partly drawn) [Example 240, 5-((1R)-1-((3,5-difluoro-4-(trimethylsilyl)phenyl)carbamoyl)-6-ethoxy-3,4-dihydroisoquinolin-2(1H)-yl)-3-hydroxy-3-methyl-5-oxopentanoic acid] |  | 101% | 91% |  | 101% |
| CCOc1ccc2c(c1)CCN(C(=O)N1CC(CC(=O)O)C1)[C@H]2C(=O)Nc1cc(F)c([Si](C)(C)C)c(F)c1 [Example 231, (1-(((1R)-1-((3,5-difluoro-4-(trimethylsilyl)phenyl)carbamoyl)-6-ethoxy-3,4-dihydroisoquinolin-2(1H)-yl)carbonyl)azetidin-3-yl)acetic acid] |  | 101% | 96% |  | 101% |
| CCOc1ccc2c(c1)CCN(C(=O)CCC(=O)O)[C@H]2C(=O)Nc1cc(F)c([Si](C)(C)C)c(F)c1 [Example 180, 4-((1R)-1-((3,5-difluoro-4-(trimethylsilyl)phenyl)carbamoyl)-6-ethoxy-3,4-dihydroisoquinolin-2(1H)-yl)-4-oxobutanoic acid] |  | 101% | 93% |  | 100% |
| CCOc1ccc2c(c1)CCN(C(=O)CCCCC(=O)O)[C@H]2C(=O)Nc1cc(F)c2c(c1)CCC2(C)C [Example 210, 6-((1R)-6-ethoxy-1-((7-fluoro-1,1-dimethyl-2,3-dihydro-1H-inden-5-yl)carbamoyl)-3,4-dihydroisoquinolin-2(1H)-yl)-6-oxohexanoic acid] |  | 101% | 76% | 98% |  |
| COc1ccc2c(c1)CCN(C(=O)NCCCC(=O)O)[C@H]2C(=O)Nc1cc(F)c([Si](C)(C)C)c(F)c1 [Example 242, 4-((((1R)-1-((3,5-difluoro-4-(trimethylsilyl)phenyl)carbamoyl)-6-methoxy-3,4-dihydroisoquinolin-2(1H)-yl)carbonyl)amino)butanoic acid] |  | 101% | 94% |  | 101% |
| CCOc1ccc2c(c1)CCN(C(=O)CCCCC(=O)O)[C@H]2C(=O)Nc1ccc([Si](C)(C)C)c(F)c1 [Example 211, 6-((1R)-6-ethoxy-1-((3-fluoro-4-(trimethylsilyl)phenyl)carbamoyl)-3,4-dihydroisoquinolin-2 (1H)-yl)-6-oxohexanoic acid] |  | 101% | 92% |  | 101% |
| CCOc1ccc2c(c1)CCN(C(=O)CCCC(=O)O)[C@H]2C(=O)Nc1ccc([Si](C)(C)C)c(C#N)c1 [Example 221, 5-((1R)-1-((3-cyano-4-(trimethylsilyl)phenyl)carbamoyl)-6-ethoxy-3,4-dihydroisoquinolin-2(1H)-yl)-5-oxopentanoic acid] |  | 102% | 97% |  | 101% |
| CCOc1ccc2c(c1)CCN(C(=O)CCCC(=O)O)[C@H]2C(=O)Nc1cc(F)c2c(c1)CCC2(C)C [Example 182, 5-((1R)-6-ethoxy-1-((7-fluoro-1,1-dimethyl-2,3-dihydro-1H-inden-5-yl)carbamoyl)-3,4-dihydroisoquinolin-2(1H)-yl)-5-oxopentanoic acid] |  | 101% | 67% | 99% |  |
| C[Si](C)(C)c1c(F)cc(NC(=O)[C@H]2c3ccc(OC(F)F)cc3CCN2C(=O)CCCC(=O)O)cc1F [Example 196, 5-((1R)-6-(difluoromethoxy)-1-((3,5-difluoro-4-(trimethylsilyl)phenyl)carbamoyl)-3,4-dihydroisoquinolin-2 (1H)-yl)-5-oxopentanoic acid] |  | 102% | 91% |  | 100% |
| CC1(C)CCc2cc(NC(=O)[C@H]3c4ccc5c(c4CCN3C(=O)CCCC(=O)O)OCO5)cc(F)c21 [Example 256, 5-((6R)-6-((7-fluoro-1,1-dimethyl-2,3-dihydro-1H-inden-5-yl)carbamoyl)-8,9-dihydro[1, 3]dioxolo[4,5-f]isoquinolin-7 (6H)-yl)-5-oxopentanoic acid] |  | 100% | 102% | 83% |  |
| CCOc1ccc2c(c1)CCN(C(=O)NCCC(=O)O)[C@H]2C(=O)Nc1cc(F)c([Si](C)(C)C)c(F)c1 [Example 227, N-(((1R)-1-((3,5-difluoro-4-(trimethylsilyl)phenyl)carbamoyl)-6-ethoxy-3,4-dihydroisoquinolin-2(1H)-yl)carbonyl)-beta-alanine] |  | 102% | 95% |  | 101% |
| CCOc1ccc2c(c1)CCN(C(=O)CCCC(=O)O)[C@H]2C(=O)Nc1ccc([Si](C)(C)C)c(F)c1 [Example 183, 5-((1R)-6-ethoxy-1-((3-fluoro-4-(trimethylsilyl)phenyl)carbamoyl)-3,4-dihydroisoquinolin-2 (1H)-yl)-5-oxopentanoic acid] |  | 101% | 91% |  | 102% |
